Data reported in article PMC12474180 (Toxins, 2025).
Read-outs that look alike come from different tables or passages of the source.

Assays:
[1] = knockout mutant m6-ΔmlrD cells in MSM; settings: Sphingopyxis sp. m6, 30 °C, up to 6 h
MlrA [2] = test: purified recombinant MBP-tagged MlrA (0.05 mg/L purified enzymes); settings: Sphingopyxis sp. m6, 30 °C, up to 30 min
MlrA, MlrB, MlrC = test: Mlr enzymes of Sphingomonas sp. ACM-3962; settings: cited from earlier work
MlrC [3] = test: purified recombinant MBP-tagged MlrC (0.05 mg/L purified enzymes); settings: Sphingopyxis sp. m6, 30 °C, up to 6 h
[4] = knockout mutant m6-ΔmlrB cells in MSM; settings: Sphingopyxis sp. m6, 30 °C, up to 6 h
MlrA [5] = settings: cited from earlier work
[6] = Sphingopyxis sp. m6 (wild-type) cells in MSM; settings: Sphingopyxis sp. m6, 30 °C, up to 6 h
[7] = knockout mutant m6-ΔmlrC cells in MSM; settings: Sphingopyxis sp. m6, 30 °C, up to 6 h
MlrB [8] = test: purified recombinant MBP-tagged MlrB (0.05 mg/L purified enzymes); settings: Sphingopyxis sp. m6, 30 °C, up to 6 h
MlrC [9] = settings: Sphingomonas ACM-3962 and Sphingopyxis sp. C-1; cited from earlier work
MlrB [10] = settings: cited from earlier work
MlrC [11] = test: recombinant MlrC; settings: cited from earlier work
MlrB [12] = test system: MlrB
MlrA [13] = test system: MlrA
MlrC [14] = test system: MlrC

## cyclo-(Ala-Leu-MeAsp-Arg-Adda-Glu-Mdha)
[1]
  fragment found: linearized MC-LR, within 1 h and tetrapeptide and Adda
MlrA [2]
  cleaved bond: Arg-Adda
MlrA, MlrB, MlrC
  fragment found: linearized MC-LR and tetrapeptide and Adda
MlrC [3]
  not cleaved: can’t degrade
[4]
  fragment found: linearized MC-LR, within 1 h and tetrapeptide, minor and Adda
MlrA [5]
  fragment found: linearized MC-LR (Adda-Glu-Mdha-Ala-Leu-MeAsp-Arg), first_seen
[6]
  cleaved bond: Arg-Adda, first_seen
[7]
  fragment found: linearized MC-LR, within 1 h and tetrapeptide and Adda
MlrB [8]
  not cleaved: can’t degrade

## Adda-Glu-Mdha-Ala-Leu-MeAsp-Arg
MlrC [9]
  fragment found: Adda
MlrA [2]
  not cleaved: can’t degrade
MlrB [10]
  fragment found: tetrapeptide (Adda-Glu-Mdha-Ala)
MlrC [11]
  fragment found: hexapeptide compound
MlrC [3]
  cleaved bond: Adda-Glu
[6]
  cleaved bond: Ala-Leu
MlrB [8]
  cleaved bond: Ala-Leu

## Adda-Glu-Mdha-Ala
MlrC [9]
  fragment found: Adda
MlrA [2]
  not cleaved: can’t degrade
MlrC [3]
  cleaved bond: Adda-Glu
[6]
  cleaved bond: Adda-Glu
MlrB [8]
  not cleaved: can’t degrade

## COC(Cc1ccccc1)C(C)C=C(C)C=CC(N)C(C)C(=O)O (stereo not shown) [Adda, 3-amino-9-methoxy-2,6,8-trimethyl-10-phenyl-deca-4,6-dienoic acid]
m6-ΔmlrB
  degrading ability of the strain: can all degrade
m6-ΔmlrA
  degrading ability of the strain: can all degrade
MlrB [12]
  Degrading ability of MlrB: -
m6-ΔmlrC
  degrading ability of the strain: can all degrade
MlrA [13]
  Degrading ability of MlrA: -
MlrC [14]
  Degrading ability of MlrC: -
m6-ΔmlrD
  degrading ability of the strain: can all degrade
